Target: T1, human recombinant P2X7 receptor (Homo sapiens, UniProt Q99572)
T1 construct: expressed in transfected cells
T1 sequence (Q99572 1-595): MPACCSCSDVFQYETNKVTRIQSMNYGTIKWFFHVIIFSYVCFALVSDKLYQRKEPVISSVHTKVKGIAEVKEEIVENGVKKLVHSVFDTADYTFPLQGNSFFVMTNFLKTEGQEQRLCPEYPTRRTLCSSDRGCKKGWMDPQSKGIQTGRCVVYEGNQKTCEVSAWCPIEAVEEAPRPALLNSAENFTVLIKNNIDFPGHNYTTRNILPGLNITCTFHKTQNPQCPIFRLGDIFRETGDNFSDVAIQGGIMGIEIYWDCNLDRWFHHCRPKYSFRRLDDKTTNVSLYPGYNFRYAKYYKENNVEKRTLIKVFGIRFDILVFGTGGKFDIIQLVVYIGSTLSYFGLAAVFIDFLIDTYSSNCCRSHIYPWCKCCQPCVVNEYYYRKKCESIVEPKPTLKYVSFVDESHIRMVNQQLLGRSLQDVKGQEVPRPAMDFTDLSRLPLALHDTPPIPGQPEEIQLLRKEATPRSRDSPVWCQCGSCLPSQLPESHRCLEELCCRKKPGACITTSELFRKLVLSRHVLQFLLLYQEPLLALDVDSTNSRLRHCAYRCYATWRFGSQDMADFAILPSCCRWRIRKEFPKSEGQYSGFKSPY
Assay: YO-PRO assay (YO-PRO-1 uptake) in HEK cells stably expressing P2X7
Type: cell-based
Details: HEK-293 cells expressing human recombinant P2X7 receptor; ATP 250 μM, 90 minutes; YO-PRO-1 fluorescence (FLIPR tetra); read-out: IC50 (antagonistic activity with respect to the P2X7 receptor)
Method in brief: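 Antagonist serially diluted (duplicates) on P2X7-expressing HEK cells in buffer with 0.5 μM YO-PRO-1; dye uptake followed on FLIPR Tetra over four time points. IC50 from maximum fluorescence intensity versus compound concentration.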

Row | Structure (SMILES) | IC50 [nM]
1 | O=C(NCC1(O)CCCCC1)c1cc(N(Cc2ccccc2)c2cc[nH]c(=O)n2)ccc1Cl [Example 30, 5-[Benzyl-(2-oxo-1,2-dihydro-pyrimidin-4-yl)-amino]-2-chloro-N-(1-hydroxy-cyclohexylmethyl)-benzamide] | 181
2 | CC(O)(c1ccc(Cl)c(C(=O)NCC2(O)CCCCC2)c1)c1cc[nH]c(=O)n1 (racemic) [Example 156, rac-2-Chloro-N-(1-hydroxy-cyclohexylmethyl)-5-[1-hydroxy-1-(2-oxo-1,2-dihydro-pyrimidin-4-yl)-ethyl]-benzamide] | 14
3 | CN(c1ccc(Cl)c(C(=O)NCC2(O)CCCCC2)c1)c1cc(S(C)(=O)=O)ncn1 [Example 66, 2-Chloro-N-(1-hydroxy-cyclohexylmethyl)-5-[(6-methanesulfonyl-pyrimidin-4-yl)-methyl-amino]-benzamide] | 158
4 | COc1ccnc(N(C)c2ccc(Cl)c(C(=O)NCC3(O)CCCCC3)c2)n1 [Example 74, 2-Chloro-N-(1-hydroxy-cyclohexylmethyl)-5-[(4-methoxy-pyrimidin-2-yl)-methyl-amino]-benzamide] | 280
5 | CN(c1ccc(Cl)c(C(=O)NCC2(O)CCCCC2)c1)c1ccc(Cl)nn1 [Example 89, 2-Chloro-5-[(6-chloro-pyridazin-3-yl)-methyl-amino]-N-(1-hydroxy-cyclohexylmethyl)-benzamide] | 271
6 | COCCN(c1ccc(Cl)c(C(=O)NCC2(O)CCCCC2)c1)c1ncccn1 [Example 71, 2-Chloro-N-(1-hydroxy-cyclohexylmethyl)-5-[(2-methoxy-ethyl)-pyrimidin-2-yl-amino]-benzamide] | 2000

Reference: patent US20140073651A1, “BENZAMIDE DERIVATIVES AS P2X7 RECEPTOR ANTAGONISTS” (Actelion Pharmaceuticals Ltd., priority 2011, published 2014)
